{"source": "patent EP3018135A1", "about": "“A COMPOUND WITH ANTI-CARCINOGENIC EFFECT AND A METHOD FOR PRODUCTION OF THIS COMPOUND” (Ulusal Bor Arastirma Enstitusu, priority 2014, dated 2016)", "key": {"K562 cells [1]": {"tested_on": "K562 cells", "assay": "Apoptotic effect by flow cytometry with Annexin V-FITC/7-AAD kit", "assay_type": "cell-based", "excerpt": "(§1) In order to determine anti-carcinogenic effect of the inventive compound acute promyelocytic leukaemia (HL-60) and chronic myelogenous leukaemia (K-562) cells were used to prepare cancer cell cultures under suitable conditions. Both leukemic cell lines were subjected to the following methods: • Determination of cytotoxicity / MTT test; • Determination of apoptotic effect using flow cytometry device with Annexin V-FITC/7-AAD kit; • Determination of apoptotic effect using flow cytometry device with caspase-3/7 activation; • Determination of mitochondrial membrane integrity of cells using JC-1 dyeing method; • Determination of apoptotic DNA using DNA fragmentation method with agarose gel; • Determination of NF-kB and c-myc mRNA expression levels using real time PCR (polymerase chain reaction) method; • Gene panel study using RT-PCR method."}, "[2]": {"tested_on": "NF-kB and c-myc mRNA expression in HL-60 cells", "assay": "NF-kB and c-myc mRNA expression levels by real time PCR", "assay_type": "cell-based", "conditions": "RT-PCR", "excerpt": "as §1"}, "[3]": {"tested_on": "NF-kB and c-myc mRNA expression in K562 cells", "assay": "NF-kB and c-myc mRNA expression levels by real time PCR", "assay_type": "cell-based", "conditions": "RT-PCR", "excerpt": "as §1"}, "[4]": {"tested_on": "NF-kB in HCT116 colon cancer cells", "conditions": "cited from earlier work"}, "[5]": {"tested_on": "NF-kB in HT-29 colon cancer cells", "conditions": "cited from earlier work"}, "NF-kB in Caco2 cells": {"tested_on": "NF-kB in Caco2 cells", "conditions": "cited from earlier work"}, "[6]": {"tested_on": "NF-kB levels in MM.1S cells", "conditions": "12 nmol/mL, 12th and 24th hours of incubation, ELISA; cited from earlier work"}, "HL-60 cells [7]": {"tested_on": "HL-60 cells", "assay": "Determination of cytotoxicity / MTT test", "assay_type": "cell-based", "excerpt": "as §1"}, "K562 cells [8]": {"tested_on": "K562 cells", "assay": "Determination of cytotoxicity / MTT test", "assay_type": "cell-based", "excerpt": "as §1"}, "HL-60 cell line": {"tested_on": "HL-60 cell line", "assay": "Apoptotic effect by flow cytometry with Annexin V-FITC/7-AAD kit", "assay_type": "cell-based", "excerpt": "as §1"}, "HL-60 cells [9]": {"tested_on": "HL-60 cells", "assay": "Mitochondrial membrane integrity, JC-1 dyeing method", "assay_type": "cell-based", "conditions": "12.5 µM (increase starting from 1.5 µM)", "excerpt": "as §1"}, "K562 cells [10]": {"tested_on": "K562 cells", "assay": "Mitochondrial membrane integrity, JC-1 dyeing method", "assay_type": "cell-based", "conditions": "12.5 µM", "excerpt": "as §1"}, "K562 cells [11]": {"tested_on": "K562 cells", "assay": "Apoptotic effect by flow cytometry with caspase-3/7 activation", "assay_type": "cell-based", "conditions": "12.5 µM, 24 hours of incubation", "excerpt": "as §1"}, "[12]": {"tested_on": "NFkB-1, p53, PIK3CA, BCL-3, ICAM1, KRAS and BCR genes in HL-60 cells", "assay": "Gene panel study by RT-PCR", "assay_type": "cell-based", "conditions": "in comparison to control and Bortezomib groups, decrease more effective than in K562 cells", "excerpt": "as §1\n(§2) The genes used in gene panel study with RT-PCR method include; NFKB-1, TNF, RELA, NMI, TP53, IL-6, TP53, PIK3CA, NFKB-2, BCL-3, NFKBIA, RELB, ICAM1, IL-8, KRAS, BCR, GAPDH."}, "[13]": {"tested_on": "NFkB-1, p53, PIK3CA, BCL-3, ICAM1, KRAS and BCR genes in K562 cells", "assay": "Gene panel study by RT-PCR", "assay_type": "cell-based", "conditions": "in comparison to control and Bortezomib groups", "excerpt": "as §1, §2"}}}
{"molecule": "CC(C)C[C@H](NC(=O)[C@H](Cc1ccccc1)NC(=O)c1cnccn1)B(O)O", "note": "[Bortezomib, reference compound]", "values": [{"measurement": "early apoptotic cell ratio", "setting": "K562 cells [1]; K562 cells, 3.12 µM, 24th hour", "value": 18.1, "unit": "%"}, {"measurement": "expression of NF-kB gene", "setting": "[2]", "value": "decreases expression"}, {"measurement": "expression of NF-kB gene", "setting": "[3]", "value": "decreases expression"}, {"measurement": "NF-kB inhibition", "setting": "[4]", "value": "NF-kB inhibition was observed"}, {"measurement": "NF-kB inhibition", "setting": "[5]", "value": "NF-kB inhibition was observed"}, {"measurement": "NF-kB inhibition", "setting": "NF-kB in Caco2 cells", "value": "not observed"}]}
{"molecule": "CC(C)C[C@H](NC(=O)CNC(=O)c1cc(Cl)ccc1Cl)B(O)O", "note": "[MLN2238]", "values": [{"measurement": "NF-kB levels", "setting": "[6]", "value": "significant decreases"}]}
{"molecule": "(4-(2-amino-2-(10,11-dioxo-10,11-dihydro-5H-imidaso[1,5,4,3-lmn][1,10]phenanthrolin-5-il]ethyl]phenyl]boronic acid [inventive compound]", "values": [{"measurement": "IC50", "setting": "HL-60 cells [7]; 24th hour", "value": 2160, "unit": "nM"}, {"measurement": "IC50", "setting": "HL-60 cells [7]; 48th hour", "value": 2850, "unit": "nM"}, {"measurement": "IC50", "setting": "K562 cells [8]; 24th hour", "value": 2620, "unit": "nM"}, {"measurement": "IC50", "setting": "K562 cells [8]; 48th hour", "value": 3410, "unit": "nM"}, {"measurement": "early apoptotic effect", "setting": "HL-60 cell line; Annexin-V/7-AAD", "value": "has not displayed early apoptotic effect"}, {"measurement": "necrotic cell rates", "setting": "HL-60 cell line; concentrations of 3.12 µM and more, compared to control", "value": "increase compared to control"}, {"measurement": "apoptotic cell ratio", "setting": "K562 cells [1]; K562 cells, 1.5 µM", "value": 13.7, "unit": "%"}, {"measurement": "early and late apoptotic cell rate", "setting": "K562 cells [1]; K562 cells, 12.5 µM", "value": 38.2, "unit": "%"}, {"measurement": "apoptotic effect", "setting": "K562 cells [1]; K562 cells, 1.5, 3.12, 6.25 and 12.5 µM, 24th hour", "value": "increased the apoptotic effect"}, {"measurement": "early-late apoptotic and necrotic cell rates", "setting": "K562 cells [1]; K562 cells, concentrations of 6.5 and 12.5 µM, compared to control", "value": "increase compared to control"}, {"measurement": "ratio of JC-1 positive cells", "setting": "HL-60 cells [9]", "value": 37.1, "unit": "%"}, {"measurement": "ratio of JC-1 positive cells", "setting": "K562 cells [10]", "value": 14.7, "unit": "%"}, {"measurement": "increase in the ratio of caspase 3/7 positive cells, K562 cells in comparison to HL-60 cells", "setting": "K562 cells [11]", "value": 2, "unit": "times"}, {"measurement": "c-myc expression", "setting": "[2]", "value": "decreased"}, {"measurement": "expression of NF-kB gene", "setting": "[2]", "value": "decreases expression"}, {"measurement": "expression of NF-kB gene", "setting": "[3]", "value": "decreases expression"}, {"measurement": "c-myc expression", "setting": "[3]; versus control group", "value": "higher than control group values"}, {"measurement": "expression of NFkB-1, p53, PIK3CA, BCL-3, ICAM1, KRAS and BCR genes", "setting": "[12]", "value": "decreases expression"}, {"measurement": "expression of NFkB-1, p53, PIK3CA, BCL-3, ICAM1, KRAS and BCR genes", "setting": "[13]", "value": "decreases expression"}]}
